Molecules are shown by their SMILES.

Type in all cases: functional
The subject of assay [1] is Rattus norvegicus. The assay can be described thus: Percent reduction in swelling of the left hind paw in rat determined in adjuvant arthritis test, 25 mg/kg dose was perorally. Conditions: route oral.
For assay [2], the system named is Rattus norvegicus. The assay can be described thus: Minimum ulcerogenic dose was evaluated 24 hours after peroral administration; value may range from 60-120.
For assay [3], the system named is Rattus norvegicus. The assay can be described thus: Percent reduction in swelling of the left hind paw in rat when 2 mg/kg of dose was injected perorally which was determined in adjuvant arthritis test. Particulars: route oral.
For assay [4], the species on record is Rattus norvegicus. The assay can be described thus: Activity relative to fenclofenac determined in adjuvant arthritis test.
In assay [5] the test system is Rattus norvegicus. The assay can be described thus: Percent reduction in swelling of the left hind paw in rat when 10 mg/kg of dose was injected perorally which was determined in adjuvant arthritis test. Conditions: route oral.
For assay [6], the system named is Rattus norvegicus. The assay can be described thus: Minimum ulcerogenic dose was evaluated 24 hours after peroral administration; value may range from 12.5-25.
The test system of assay [7] is Rattus norvegicus. The assay can be described thus: Percent reduction in swelling of the left hind paw in rat when 75 mg/kg of dose was injected perorally which was determined in adjuvant arthritis test. Conditions: route oral.
In assay [8] the test system is Rattus norvegicus. The assay can be described thus: Percent reduction in swelling of the left hind paw in rat when 20 mg/kg of dose was injected perorally which was determined in adjuvant arthritis test. Conditions: route oral.
In assay [9] the test system is Rattus norvegicus. The assay can be described thus: Minimum ulcerogenic dose was evaluated 24 hours after peroral administration; value may range from 100-200.
Assay [10] has as its system Rattus norvegicus. The assay can be described thus: Percent reduction in swelling of the left hind paw in rat when 25 mg/kg of dose was injected perorally which was determined in adjuvant arthritis test. Conditions: route oral.
For assay [11], the system named is Rattus norvegicus. The assay can be described thus: Minimum ulcerogenic dose was evaluated 24 hours after peroral administration; value may range from 400-800.
In assay [12] the test system is Rattus norvegicus. The assay can be described thus: Percent reduction in swelling of the left hind paw in rat determined in adjuvant arthritis test, 50 mg/kg dose perorally. Conditions: route oral.
Assay [13] deals with Rattus norvegicus. The assay can be described thus: Minimum ulcerogenic dose was evaluated 24 hours after peroral administration.
Assay [14] has as its system Rattus norvegicus. The assay can be described thus: Percent reduction in swelling of the left hind paw in rat when 40 mg/kg of dose was injected perorally which was determined in adjuvant arthritis test. Conditions: route oral.
The subject of assay [15] is Rattus norvegicus. The assay can be described thus: Minimum ulcerogenic dose was evaluated 24 hours after peroral administration; value may range from 50-100.
Assay [16] deals with Rattus norvegicus. The assay can be described thus: Percent reduction in swelling of the left hind paw in rat when 35 mg/kg of dose was injected perorally which was determined in adjuvant arthritis test. Particulars: route oral.
For assay [17], the system named is Rattus norvegicus. The assay can be described thus: Percent reduction in swelling of the left hind paw in rat when 100 mg/kg of dose was injected perorally which was determined in adjuvant arthritis test. Conditions: route oral.
Assay [18] concerns Rattus norvegicus. The assay can be described thus: Minimum ulcerogenic dose was evaluated 24 hours after peroral administration; value may range from 50-80.

On to `Cc1c(N)c(Oc2ccccc2CC(=O)O)c(Cl)c(C)c1Cl`, for which, in the assay on Rattus norvegicus [1], the Reduction worked out at 4%. Moreover, the MUD with Rattus norvegicus [2] was determined as 60 mg/kg.
`CNc1cc(Cl)cc(Cl)c1Oc1ccccc1CC(=O)O`: the Reduction in the assay on Rattus norvegicus [3] was 22%. For the same molecule, the Relative potency in the assay listed under Rattus norvegicus [4] was found to be 13.
On to `Nc1cc(Cl)cc(Cl)c1Oc1ccccc1CC(=O)O`, for which the Reduction with Rattus norvegicus [5] was 41%. Also, in the assay on Rattus norvegicus [6], the MUD came out at 12.5 mg/kg. For the same molecule, the Relative potency in the assay listed under Rattus norvegicus [4] is on record as 6.8.
Consider `CC(=O)N1CCc2ccccc2Oc2c(Cl)cc(Cl)cc21`, for which the Reduction in the assay on Rattus norvegicus [7] is on record as 10%.
For `Cc1cccc(N(C)C)c1Oc1ccccc1CC(=O)O`, the Reduction in the assay on Rattus norvegicus [8] was 38%. The MUD in the assay on Rattus norvegicus [9] is 100 mg/kg. Moreover, the Relative potency in the assay filed under Rattus norvegicus [4] worked out at 2.1.
Take `Clc1cc(Cl)c2c(c1)NCCc1ccccc1O2`: the Reduction in the assay with Rattus norvegicus [10] is 41%. In addition, the Relative potency in the assay filed under Rattus norvegicus [4] was 2.1.
On to `Cc1cc(Cl)c2c(c1)NCCc1ccccc1O2`, for which, in the assay with Rattus norvegicus [10], the Reduction is given as 23%.
Consider `Cc1cccc(N)c1Oc1ccccc1CC(=O)O`, for which the MUD with Rattus norvegicus [11] is 400 mg/kg. Further, the Reduction in the assay with Rattus norvegicus [1] turned out to be 32%. Also, the Relative potency in the assay listed under Rattus norvegicus [4] amounted to 1.9.
Turning to `NC(=O)Cc1ccccc1Oc1c(Cl)cccc1[N+](=O)[O-]`, the Reduction in the assay with Rattus norvegicus [12] was determined as 36%. The molecule also returned an MUD in the assay with Rattus norvegicus [13] of over 800 mg/kg. The Relative potency in the assay listed under Rattus norvegicus [4] was determined as 1.1.
In the case of `Cc1ccc2c(c1)CCNc1cc(C)cc(Cl)c1O2`, the Reduction with Rattus norvegicus [14] is on record as 19%.
Regarding `Nc1c(Cl)c(Cl)cc(Cl)c1Oc1ccccc1CC(=O)O`, the Reduction in the assay on Rattus norvegicus [5] was found to be 37%. In addition, the MUD in the assay on Rattus norvegicus [15] worked out at 50 mg/kg. In the assay filed under Rattus norvegicus [4], the Relative potency is 11.6.
`CNc1cc(Cl)cc(Cl)c1Oc1ccccc1CC(=O)OC`: in the assay on Rattus norvegicus [12], the Reduction worked out at 36%. For the same molecule, the MUD in the assay with Rattus norvegicus [15] is 50 mg/kg. Further, the Relative potency in the assay listed under Rattus norvegicus [4] was 2.5.
`Nc1ccccc1Oc1ccccc1CC(=O)O`: the Reduction in the assay on Rattus norvegicus [16] is listed as 2%.
In turn, `Nc1cc(C(F)(F)F)ccc1Oc1ccccc1CC(=O)O` returned an MUD in the assay with Rattus norvegicus [11] of 400 mg/kg. Besides, the Reduction with Rattus norvegicus [17] was 36%. Further, in the assay listed under Rattus norvegicus [4], the Relative potency amounted to 2.1.
As to `COC(=O)Cc1ccccc1Oc1c(N)cc(Cl)cc1Cl`, the Reduction in the assay with Rattus norvegicus [1] came to 38%. In the assay listed under Rattus norvegicus [4], the Relative potency was 7.5. In the assay with Rattus norvegicus [18], this molecule showed an MUD of 50 mg/kg.
For `COc1cc(Cl)cc2c1Oc1ccc(C)cc1CCN2`, the Reduction in the assay with Rattus norvegicus [7] is reported as 1%.
In the case of `O=[N+]([O-])c1cccc(Cl)c1Oc1ccccc1CCO`, in the assay with Rattus norvegicus [17], the Reduction is listed as 37%. Also, in the assay on Rattus norvegicus [15], the MUD stood at 50 mg/kg.
For `O=C(O)Cc1ccccc1Oc1c(Cl)cccc1[N+](=O)[O-]`, the Reduction with Rattus norvegicus [7] came out at 45%. Besides, the MUD in the assay on Rattus norvegicus [9] was 100 mg/kg. The Relative potency in the assay filed under Rattus norvegicus [4] stood at 2.
